Tested on: Histone 3 acetylation in peripheral blood mononuclear cells
Assay: H3 acetylation in peripheral blood mononuclear cells of healthy donors, flow cytometry
Format: cell-based, humans
Settings: PBMC of healthy donors
Text: Percentage of cells with H3 acetylation, as determined by flow cytometry, is shown.
Since H3 acetylation is a pharmacodynamic biomarker of Nstat activity, acetylation of H3 was examined in treated cells.

Structure (SMILES): O=C(NO)c1cnc(N2CC3C(C2)C3NCc2ccc3cc(F)ccc3n2)nc1 (centres unmarked) [Nstat, 2-(6-{[(6-Fluoroquinolin-2-yl)methyl]amino}-3-azabicyclo[3.1.0]hex-3-yl)-N-hydroxypyrimidine-5-carboxamide]
- potency in inducing elevated levels of Histone 3 acetylation (even at a dose of 100 nM, FIG. 2): much more potent than entinostat
- duration of effect on H3 acetylation (time-course) (even at doses down to 10 nM, FIG. 3): long-lasting
